From patent US20190322676A1, “CERAMIDE GALACTOSYLTRANSFERASE INHIBITORS FOR THE TREATMENT OF DISEASE” (BioMarin Pharmaceutical Inc., priority 2016, published 2019)
Where a name gives a salt, the structure may show the parent alone.

Biological target: T1, human CGT (ceramide galactosyltransferase), CHO/CGT lysate (Homo sapiens, UniProt Q16880)
T1 construct: Full-length human CGT cDNA was cloned into the BamH1/Xho1 site of pcDNA3.1 (+); expressed in transfected cells; host or cells: Chinese hamster ovary (CHO) cells; lysate prepared with M-PER
T1 sequence (Q16880 21-541): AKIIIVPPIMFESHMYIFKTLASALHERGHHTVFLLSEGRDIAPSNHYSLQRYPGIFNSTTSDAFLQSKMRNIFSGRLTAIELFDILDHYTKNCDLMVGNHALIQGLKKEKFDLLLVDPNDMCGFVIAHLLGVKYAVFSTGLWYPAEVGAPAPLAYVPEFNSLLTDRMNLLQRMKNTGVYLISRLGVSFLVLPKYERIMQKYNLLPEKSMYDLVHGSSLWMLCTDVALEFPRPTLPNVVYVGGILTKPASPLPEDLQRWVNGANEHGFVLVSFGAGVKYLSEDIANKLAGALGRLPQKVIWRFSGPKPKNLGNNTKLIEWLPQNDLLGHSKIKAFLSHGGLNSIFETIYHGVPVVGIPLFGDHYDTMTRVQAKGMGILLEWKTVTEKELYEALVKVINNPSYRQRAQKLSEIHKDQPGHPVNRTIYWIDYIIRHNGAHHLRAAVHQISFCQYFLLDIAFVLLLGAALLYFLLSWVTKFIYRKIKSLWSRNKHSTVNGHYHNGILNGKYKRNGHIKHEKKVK
Experiment: CGT enzyme assay, RapidFire/MS/MS readout with 0.01% Tween added (Table 1 ranges with two asterisks **)
Assay type: biochemical
Settings: CGT enzymatic assay; range with two asterisks (**): RapidFire/MS/MS method with 0.01% Tween added
Method in brief: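 IC50s come from variable-slope dose-response fits of internal-standard-normalized C6-NBD-dihydro-galactosylceramide, measured by RapidFire/MS/MS (ESI negative). Reactions: 1 h, 37 °C, human CGT-expressing CHO lysate (4 μg), 0.001–50 μM compound, 10 μM NBD-dihydro-ceramide, 17.5 μM UDP-galactose, 0.5% DMSO, pH 7.2; 0.01% Tween 80 added for ** values.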

| Compound | IC50 [µM] |
| --- | --- |
| N[C@H]1CC2CCC1N2C(=O)[C@@H](NS(=O)(=O)c1ccc2cc(OC3CCCC3)ccc2c1)C(F)(F)c1ccc(-c2ccc(Cl)cc2)cc1 (stereo partly drawn) [Compound 180-1, N-((2R)-3-((2S)-2-amino-7-azabicyclo[2.2.1]heptan-7-yl)-1-(4′-chloro-[1,1′-biphenyl]-4-yl)-1,1-difluoro-3-oxopropan-2-yl)-6-(cyclopentyloxy)naphthalene-2-sulfonamide] | 1 to 10 |
| N[C@H]1CC2CCC1N2C(=O)[C@H](NS(=O)(=O)c1ccc2cc(OC3CCCC3)ccc2c1)C(F)(F)c1ccc(-c2ccc(Cl)cc2)cc1 (stereo partly drawn) [Compound 180-2, N-((2S)-3-((2S)-2-amino-7-azabicyclo[2.2.1]heptan-7-yl)-1-(4′-chloro-[1,1′-biphenyl]-4-yl)-1,1-difluoro-3-oxopropan-2-yl)-6-(cyclopentyloxy)naphthalene-2-sulfonamide] | 10 to 30 |
| N[C@@H]1CC2CCC1N2C(=O)[C@H](NS(=O)(=O)c1ccc2cc(OC3CCCC3)ccc2c1)C(F)(F)c1ccc(-c2ccc(Cl)cc2)cc1 (stereo partly drawn) [Compound 180-3, N-((2S)-3-((2R)-2-amino-7-azabicyclo[2.2.1]heptan-7-yl)-1-(4′-chloro-[1,1′-biphenyl]-4-yl)-1,1-difluoro-3-oxopropan-2-yl)-6-(cyclopentyloxy)naphthalene-2-sulfonamide] | 1 to 10 |
| N[C@@H]1CC2CCC1N2C(=O)[C@@H](NS(=O)(=O)c1ccc2cc(OC3CCCC3)ccc2c1)C(F)(F)c1ccc(-c2ccc(Cl)cc2)cc1 (stereo partly shown) [Compound 180-4] | 1 to 10 |
| NC1CCN(C(=O)[C@@H](NS(=O)(=O)c2ccc(OCC3CCCCC3)cc2)C(F)(F)c2cccc(-c3ccc(Cl)cc3)c2)CC1 [Compound 181-1, (R)—N-(3-(4-aminopiperidin-1-yl)-1-(4′-chloro-[1,1′-biphenyl]-3-yl)-1,1-difluoro-3-oxopropan-2-yl)-4-(cyclohexylmethoxy)benzenesulfonamide trifluoroacetate] | 1 to 10 |
| NC1CCN(C(=O)[C@H](NS(=O)(=O)c2ccc(OCC3CCCCC3)cc2)C(F)(F)c2cccc(-c3ccc(Cl)cc3)c2)CC1 [Compound 181-2, (S)—N-(3-(4-aminopiperidin-1-yl)-1-(4′-chloro-[1,1′-biphenyl]-3-yl)-1,1-difluoro-3-oxopropan-2-yl)-4-(cyclohexylmethoxy) benzenesulfonamide trifluoroacetate] | 1 to 10 |
| NC1CCN(C(=O)[C@@H](NS(=O)(=O)c2ccc3cc(OC4CCCC4)ccc3c2)C(F)(F)c2ccc(C3(C(F)(F)F)CC3)cc2)CC1 [Compound 182-1, (R)—N-(3-(4-aminopiperidin-1-yl)-1,1-difluoro-3-oxo-1-(4-(1-(trifluoromethyl)cyclopropyl)phenyl)propan-2-yl)-6-(cyclopentyloxy)naphthalene-2-sulfonamide trifluoroacetate] | < 1 |
| NC1CCN(C(=O)[C@H](NS(=O)(=O)c2ccc3cc(OC4CCCC4)ccc3c2)C(F)(F)c2ccc(C3(C(F)(F)F)CC3)cc2)CC1 [Compound 182-2, (S)—N-(3-(4-aminopiperidin-1-yl)-1,1-difluoro-3-oxo-1-(4-(1-(trifluoromethyl)cyclopropyl)phenyl)propan-2-yl)-6-(cyclopentyloxy) naphthalene-2-sulfonamide trifluoroacetate] | 10 to 30 |
| N[C@H]1[C@@H]2CC[C@H]1CN(C(=O)[C@@H](NS(=O)(=O)c1ccc(OCC3CCCCC3)cc1)C(F)(F)c1ccc(-c3ccc(Cl)cc3)cc1)C2 [Compound 183-1, N-((R)-3-((1R,5S,8R)-8-amino-3-azabicyclo[3.2.1]octan-3-yl)-1-(4′-chloro-[1,1′-biphenyl]-4-yl)-1,1-difluoro-3-oxopropan-2-yl)-4-(cyclohexylmethoxy)benzenesulfonamide] | < 1 |
| NC1C2CCC1CN(C(=O)[C@H](NS(=O)(=O)c1ccc(OCC3CCCCC3)cc1)C(F)(F)c1ccc(-c3ccc(Cl)cc3)cc1)C2 (stereo partly drawn) [Compound 183-2, N-((S)-3-((1R,5S,8S)-8-amino-3-azabicyclo[3.2.1]octan-3-yl)-1-(4′-chloro-[1,1′-biphenyl]-4-yl)-1,1-difluoro-3-oxopropan-2-yl)-4-(cyclohexylmethoxy)benzenesulfonamide] | 1 to 10 |
| N[C@H]1[C@@H]2CC[C@H]1CN(C(=O)[C@@H](NS(=O)(=O)c1ccc3cc(OC4CCCC4)ccc3c1)C(F)(F)c1ccc(-c3ccc(Cl)cc3)cc1)C2 [Compound 184-1, N-((R)-3-((1R,5S,8R)-8-amino-3-azabicyclo[3.2.1]octan-3-yl)-1-(4′-chloro-[1,1′-biphenyl]-4-yl)-1,1-difluoro-3-oxopropan-2-yl)-6-(cyclopentyloxy)naphthalene-2-sulfonamide] | 1 to 10 |
| N[C@H]1[C@@H]2CC[C@H]1CN(C(=O)[C@H](NS(=O)(=O)c1ccc3cc(OC4CCCC4)ccc3c1)C(F)(F)c1ccc(-c3ccc(Cl)cc3)cc1)C2 [Compound 184-2, N-((S)-3-((1R,5S,8S)-8-amino-3-azabicyclo[3.2.1]octan-3-yl)-1-(4′-chloro-[1,1′-biphenyl]-4-yl)-1,1-difluoro-3-oxopropan-2-yl)-6-(cyclopentyloxy)naphthalene-2-sulfonamide] | 1 to 10 |

Further lines, results first:

| IC50 [µM] | Compound |
| --- | --- |
| 10 to 30 | NC1CCN(C(=O)[C@@H](NS(=O)(=O)c2ccc(CCOC3CCCC3)cc2)C(F)(F)c2ccc(-c3ccc(Cl)cc3)cc2)CC1 [Compound 185-1, (R)-N-(3-(4-aminopiperidin-1-yl)-1-(4′-chloro-[1,1′-biphenyl]-4-yl)-1,1-difluoro-3-oxopropan-2-yl)-4-(2-(cyclopentyloxy)ethyl)benzenesulfonamide] |
| 30 to 100 | NC1CCN(C(=O)[C@H](NS(=O)(=O)c2ccc(CCOC3CCCC3)cc2)C(F)(F)c2ccc(-c3ccc(Cl)cc3)cc2)CC1 [Compound 185-2, (S)-N-(3-(4-aminopiperidin-1-yl)-1-(4′-chloro-[1,1′-biphenyl]-4-yl)-1,1-difluoro-3-oxopropan-2-yl)-4-(2-(cyclopentyloxy)ethyl)benzenesulfonamide] |
| 1 to 10 | N[C@H]1CCN(C(=O)[C@@H](NS(=O)(=O)c2ccc(OCC3CCCCC3)cc2)C(F)(F)c2ccc(Cl)cc2)C1 [Compound 186-1, N-((R)-3-((S)-3-aminopyrrolidin-1-yl)-1-(4-chlorophenyl)-1,1-difluoro-3-oxopropan-2-yl)-4-(cyclohexylmethoxy)benzenesulfonamide] |
| 30 to 100 | N[C@H]1CCN(C(=O)[C@H](NS(=O)(=O)c2ccc(OCC3CCCCC3)cc2)C(F)(F)c2ccc(Cl)cc2)C1 [Compound 186-2, N-((S)-3-((S)-3-aminopyrrolidin-1-yl)-1-(4-chlorophenyl)-1,1-difluoro-3-oxopropan-2-yl)-4-(cyclohexylmethoxy)benzenesulfonamide] |
| 30 to 100 | NC1CCN(C(=O)[C@@H](N(CC(F)(F)F)S(=O)(=O)c2ccc3cc(OC4CCCC4)ccc3c2)C(F)(F)c2ccc(Br)cc2)CC1 [Compound 187-1, (R)-N-(3-(4-aminopiperidin-1-yl)-1-(4-bromophenyl)-1,1-difluoro-3-oxopropan-2-yl)-6-(cyclopentyloxy)-N-(2,2,2-trifluoroethyl)naphthalene-2-sulfonamide] |
| 30 to 100 | NC1CCN(C(=O)[C@H](N(CC(F)(F)F)S(=O)(=O)c2ccc3cc(OC4CCCC4)ccc3c2)C(F)(F)c2ccc(Br)cc2)CC1 [Compound 187-2, (S)-N-(3-(4-aminopiperidin-1-yl)-1-(4-bromophenyl)-1,1-difluoro-3-oxopropan-2-yl)-6-(cyclopentyloxy)-N-(2,2,2-trifluoroethyl)naphthalene-2-sulfonamide] |
| 1 to 10 | O=C([C@@H](NS(=O)(=O)c1ccc2cc(OC3CCCC3)ccc2c1)C(F)(F)c1ccc(-c2ccc(Cl)cc2)cc1)N1CCNC2(CC2)C1 [Compound 188-1, (R)-N-(1-(4′-chloro-[1,1′-biphenyl]-4-yl)-1,1-difluoro-3-oxo-3-(4,7-diazaspiro[2.5]octan-7-yl)propan-2-yl)-6-(cyclopentyloxy)naphthalene-2-sulfonamide] |
| 30 to 100 | O=C([C@H](NS(=O)(=O)c1ccc2cc(OC3CCCC3)ccc2c1)C(F)(F)c1ccc(-c2ccc(Cl)cc2)cc1)N1CCNC2(CC2)C1 [Compound 188-2, (S)-N-(1-(4′-chloro-[1,1′-biphenyl]-4-yl)-1,1-difluoro-3-oxo-3-(4,7-diazaspiro[2.5]octan-7-yl)propan-2-yl)-6-(cyclopentyloxy)naphthalene-2-sulfonamide] |
| 1 to 10 | N[C@@H]1CCN(C(=O)[C@@H](NS(=O)(=O)c2ccc(OCC3CCCCC3)cc2)C(F)(F)c2ccc(Cl)cc2)C1 [Compound 189-1, N-((R)-3-((R)-3-aminopyrrolidin-1-yl)-1-(4-chlorophenyl)-1,1-difluoro-3-oxopropan-2-yl)-4-(cyclohexylmethoxy)benzenesulfonamide] |
| 10 to 30 | N[C@@H]1CCN(C(=O)[C@H](NS(=O)(=O)c2ccc(OCC3CCCCC3)cc2)C(F)(F)c2ccc(Cl)cc2)C1 [Compound 189-2, N-((S)-3-((R)-3-aminopyrrolidin-1-yl)-1-(4-chlorophenyl)-1,1-difluoro-3-oxopropan-2-yl)-4-(cyclohexylmethoxy)benzenesulfonamide] |
